From patent US5830994A, “Peptide derivatives of alpha-MSH and their application” (Institut Europeen De Biologie Cellulaire, priority 1993, dated 1998)

Legend:
cultured embryonic cells = test: Effects of Peptides PI and PIV on cultured embryonic cells in vitro (melanocytes, neurons, muscular cells, fibroblasts); assay type: cell-based
Procedure: Effects of Peptides PI and PIV on cultured embryonic cells in vitro . . . "Melanocytes - Neurons - Muscular Cells and Fibroblasts . . . " dose used 1 μg/ml (defined by dose/response trials)
1 single treatment during the innoculation of the cells or several successive treatments (renewal of the medium every 48 hours) duration of culture: 6 to 8 days
1) Counting of the melanocytes
2) Assay of melanin by HPLC and/or by spectrophotometry
Daily observation of the cultures
Ultrastructure by transmission electron microscopy.

[1] = test system: DNFB contact hypersensitivity; test: Dinitrofluorobenzene (DNFB) contact hypersensitivity test, ear thickening after topical application; assay type: in vivo, C57 BL/6JICO mice; details: Example 13
Text: Study of the Anti-allergic activity of the Peptide compounds, by the Dinitrofluorobenzene (DNFB) contact Hypersensitivity test.
Female C57 BL/6JICO mice 5 weeks old are separated into ten batches of ten animals (five per cage), with free access to water and food, subjected to a photoperiod of twelve hours of light per twenty-four hours.
The animals in batches 1 to 6 receive daily and per topical application on the shaved skin of the back, the products to be studied, dissolved in propylene glycol, in a constant volume of 50 μl and for five consecutive days.
PIII--Batches 1 - 2 - 3--2.5 μg --0.5 μg--0.1 μg--mouse/day
PIV--Batches 4 - 5 - 6 - 2.5μg--0.5 μg--0.1 μg--mouse/day
The animals of the X batch serve as controls (and receive only, 50 μl of propylene glycol per topical application for five days).
(§1) On the fifth day, thirty minutes after the last application, all the mice are sensitized with 25 μl of DNFB (2.4-Dinitro-1-FluoroBenzene (FLUKA CHEMIKA PURUM at 97% batch No. 33820890) at 2% in a 4 to 1 mixture of acetone (SDS ref. 0510) and triolein (FLUKA) applied topically over the dorsal region of shaved skin.
On the sixth day, a new sensitization is carried out by application of DNFB.
On the eleventh day, the thickness of the ears of the mice is measured with the aid of a micrometer (ROCH 0 to 25 mm in 1/100 mm) in order to obtain base values, then the ears are stimulated by topical application of 20 μl of DNFB at 0.8%.
(§2) On the twelfth day, the thickness of the ears is again measured. The mean value of thickening of the ears is established for the mice in the batches which had received the products to be studied, as well as for the mice in the control batch.
The percentage of suppression where appropriate will be expressed by the following calculation: [formula]
Comparative study of the activity of Lipoyl-Peptides and of their peptide structures on DNFB contact hypersensitivity.
The method used is that described above in Example 10.
Contact hypersensitivity induced in mice by Dinitrofluorobenzene--"DNBF"
Batch I: (DL) - Lip - Glu - His - D.homoPhe - Arg - Trp - Gly - NH2
Batch II: H - Glu - His - D.homoPhe - Arg - Trp - Gly - NH2
Batch III: Control=(DL) - Lipoic Acid
Solvent: propylene Glycol previously used as control in Example 10.
Control: dose used"DL-Lipoic-Acid"=10 ng per mouse and per day.
as §1, with “were” for “are”, “05510)” for “0510)”
as §2, with “batch. The percentage of suppression where appropriate will be expressed by the following calculation: [formula]” for “batch.”

[(DL) Lip] Glu - His - D.homoPhe - Arg - Trp - Gly - NH2 [PI]
effect on precursor embryonic cells not yet determined in the melanoblastic pathway (in words) (cultured embryonic cells; 1 μg/ml): no effect | effect on the melanoblasts already induced (in words) (cultured embryonic cells; 1 μg/ml): stimulating effect | number of melanocytes increases by a factor (cultured embryonic cells; 1 μg/ml): ≥ 2 | toxic effect on astroglial cells (in words) (cultured embryonic cells; 1 μg/ml): No toxic effect | toxic effect on fibroblasts, mesenchyme (in words) (cultured embryonic cells; 1 μg/ml): no toxic effect | quantity of biosynthesized melanin per cell (cultured embryonic cells; 1 μg/ml, after eight days of culture): 1.4 ng/cell | toxic effect on myoblasts (in words) (cultured embryonic cells; 1 μg/ml, even at an ultrastructural level): no toxic effect | effect on melanogenesis, summary (in words) (cultured embryonic cells; qualitative and quantitative): stimulate melanogenesis | cytotoxic effect on the various cell categories (in words) (cultured embryonic cells; summary): no cytotoxic effect | stimulating effect on the other cell types: neurons, astrocytes, muscle cells, fibroblasts (in words) (cultured embryonic cells; summary): without stimulating effect | % SUPPRESSION RELATIVE TO THE CONTROL BATCH, Left Ear ([1]; 1 ng/mouse/day): -75.40% | % SUPPRESSION RELATIVE TO THE CONTROL BATCH, Right Ear ([1]; 1 ng/mouse/day): -75.58% | LEFT EAR MEAN % INCREASE ([1]; 1 ng/mouse/day): 13.86% | RIGHT EAR MEAN % INCREASE ([1]; 1 ng/mouse/day): 13.86% | % SUPPRESSION RELATIVE TO THE CONTROL BATCH, Left Ear ([1]; 10 ng/mouse/day): -77.01% | % SUPPRESSION RELATIVE TO THE CONTROL BATCH, Right Ear ([1]; 10 ng/mouse/day): -76.90% | LEFT EAR MEAN % INCREASE ([1]; 10 ng/mouse/day): 12.95% | RIGHT EAR MEAN % INCREASE ([1]; 10 ng/mouse/day): 13.01% | % SUPPRESSION RELATIVE TO THE CONTROL BATCH, Left Ear ([1]; 100 ng/mouse/day): -79.30% | % SUPPRESSION RELATIVE TO THE CONTROL BATCH, Right Ear ([1]; 100 ng/mouse/day): -79.45% | LEFT EAR MEAN % INCREASE ([1]; 100 ng/mouse/day): 11.66% | RIGHT EAR MEAN % INCREASE ([1]; 100 ng/mouse/day): 11.66% | suppression of cutaneous hypersensitivity ([1]; 100 ng/mouse/day): 79%

O=C(O)CCCCC1CCSS1 (stereo not drawn) [Lipoic acid, (DL) - Lipoic Acid, reference compound]
suppressive effect of cutaneous hypersensitivity (in words) ([1]; 10 ng per mouse and per day, in solution in Propylene Glycol): No suppressive effect
